Experiment [1] concerns Salmonella typhi, ATCC # 6539. In words: Bactericidal efficacy vs. chlorine standard (available chlorine equivalence). The class given is cell-based. Also noted: key to Growth in Test Tube 8 / Growth in Test Tube 9 / Growth in Test Tube 10 / Growth in Test Tube 1 / Growth in Test Tube 2 / Growth in Test Tube 3 / Growth in Test Tube 4 / Growth in Test Tube 5 / Growth in Test Tube 6 / Growth in Test Tube 7: (+) = growth; (−) = no growth. The conditions noted are these: S. typhi. As to the method: (§1) Example 2 compared the bactericidal efficacy of the thickened quaternary ammonium compound sanitizer composition (Formula 7) to that of a known concentration of chlorine. […] The mix order for Formula 7 is as follows: (1) water; (2) propylene glycol; (3) LonzaGuard; (4) FD&C Red #40; (5) Methocel; (6) Triethanolamine; and (7) Ethanol. Formula 7 and the chlorine standard were tested against Staphylococcus aureus, ATCC # 6538 and Salmonella typhi, ATCC # 6539. The chlorine standard was prepared by adding 0.1 ml of a 5% NaOCl stock solution (refrigerated Clorox® bleach) to 100 ml of sterile phosphate buffer solution to create a 50–55 ppm available chlorine concentration.
(§2) For the chlorine standard test, 0.05 ml of the test culture was added to a test tube with 50 ppm available chlorine. The test tube was placed in a 20° C. water bath. After 1 minute, the solution was transferred to test tube 1 with 10 ml of Fluid Thioglycollate medium (commercially available from Becton Dickinson (Sparks, Md.)). These steps were repeated for nine test tubes.
(§3) For Formula 7, the same series of test tubes used for the available chlorine test was used to test the quaternary ammonium compound sanitizer composition. 0.05 ml of test culture was added to Formula 7. The test tube was placed in a 20° C. water bath. After 1 minute, the solution was transferred to a test tube with 10 ml of Letheen broth in place of the Fluid Thioglycollate medium.
(§4) The formulas in Table 4 were tested with Staphylococcus aureus, ATCC # 6538 and Salmonella typhi, ATCC # 6539. […] A “+” sign means that the test tube had bacteria growth.
(§5) Equivalency is met when the sample tubes have an absence of growth in as many tubes as the chlorine standard.

In experiment [2] the test system is Staphylococcus aureus, ATCC # 6538. The experiment is described as above. In kind it is cell-based. The settings on record: S. aureus. The arrangement: key to Growth in Test Tube 8 / Growth in Test Tube 9 / Growth in Test Tube 10 / Growth in Test Tube 1 / Growth in Test Tube 2 / Growth in Test Tube 3 / Growth in Test Tube 4 / Growth in Test Tube 5 / Growth in Test Tube 6 / Growth in Test Tube 7: (+) = growth; (−) = no growth. As to the method:
as §1, §2, §3, §4, §5

The mark [3] stands for this setting: text does not separate the organisms.

This note sets out measurements from patent publication US7112559B1, “Thickened quaternary ammonium compound sanitizer” (Ecolab Inc., priority 2005, dated 2006).

On to `[Na+].[O-]Cl` [NaOCl], for which, in experiment [1] (1 minute, 20° C.), the “Growth in Test Tube 1” value is recorded as “−”, the “Growth in Test Tube 2” value is given as “−”, the “Growth in Test Tube 3” value is “+” and the “Growth in Test Tube 4” value is listed as “+”. Besides, in experiment [1] (1 minute, 20° C.), the “Growth in Test Tube 5” value was “+”, the “Growth in Test Tube 6” value was “+”, the “Growth in Test Tube 7” value is “+” and the “Growth in Test Tube 8” value is “+”. Also, in experiment [1] (1 minute, 20° C.), the “Growth in Test Tube 9” value is reported as “+” and the “Growth in Test Tube 10” value was “+”. Also, the “Growth in tubes 1–10” value in experiment [1] (setting [3]) was “growth in tubes 3–10”. Besides, in experiment [2] (1 minute, 20° C.), the “Growth in Test Tube 1” value was “−”, the “Growth in Test Tube 2” value is on record as “−”, the “Growth in Test Tube 3” value was “+” and the “Growth in Test Tube 4” value is recorded as “+”. In experiment [2] (1 minute, 20° C.), the “Growth in Test Tube 5” value is on record as “+”, the “Growth in Test Tube 6” value is “+”, the “Growth in Test Tube 7” value is listed as “+” and the “Growth in Test Tube 8” value is reported as “+”. Besides, in experiment [2] (1 minute, 20° C.), the “Growth in Test Tube 9” value is given as “+” and the “Growth in Test Tube 10” value is “+”. In addition, the “Growth in tubes 1–10” value in experiment [2] (setting [3]) is on record as “growth in tubes 3–10”.
